Measurements published in PubChem BioAssay AID2305 (GlaxoSmithKline (GSK), 2010).
Values joined by “and” are separate entries in the source; they are usually repeats but may differ in a detail not shown here. Equal entries are not always repeated.

Tested on: P. falciparum 3D7 growth, pLDH absorbance
Experiment: P. falciparum 3D7 growth inhibition, dose response, strain 3D7 (AID 2305)

Row | SMILES | IC50
1 | COc1cc(F)c2ncc(Cl)c(CCN3CCC(NCc4ccc5c(c4)NC(=O)CO5)CC3)c2c1 | 230 nM
2 | NCC(=O)NC12CC3CC(CC(C3)C1)C2 | 1200 nM
3 | NC(N)=NCCN(Cc1ccccc1)c1ccccc1 | 350 nM
4 | CN1CCN(CCCN(Cc2cccc(-c3cccc(CNC4CCCC4)c3)c2)C(=O)CCC2CCCC2)CC1 | 680 nM
5 | COc1ccc2nccc(N(C)CC3(O)CCC(NCc4cc5c(cn4)OCCO5)CC3)c2n1 (centres undefined) | 680 nM
6 | CC(C)(C)C1CC(=O)C[C@@H]2C(=O)N(c3ccc(Br)cc3)C(=O)[C@H]12 (some centres undefined) | 930 nM
7 | CC(C)c1ccc(S(=O)(=O)Nc2cccc(CCN3CCC(N4CCCCC4)CC3)c2)cc1 | 1120 nM
8 | Cc1ccc(-c2cc(C(=O)Nc3ccc(S(=O)(=O)N4CCCCC4)cc3)[nH]n2)c(O)c1 | 1770 nM
9 | COC(=O)c1ccc2nc(-c3ccc(C(=O)NCc4ccc(Cl)c(Cl)c4)cc3)[nH]c2c1 | 850 nM
10 | CN1CCN(c2cc(-c3cccnc3)nc(-c3ccncc3)n2)CC1 | 550 nM
11 | COc1ccc2nccc([C@@H](O)CN3CCC(NS(=O)(=O)c4cc(Br)c(Br)s4)CC3)c2c1 | 850 nM
12 | C[C@@H]1CN(C(c2cccc(O)c2)c2cccc(C(=O)N(C)c3cccc(F)c3)c2)[C@@H](C)CN1C(c1cccc(O)c1)c1cccc(C(=O)N(C)c2cccc(F)c2)c1 (some centres undefined) | 920 nM
13 | Cc1ccccc1CNC(=O)Nc1cccc(-c2csc(N=C(N)N)n2)c1 | 700 nM
14 | COc1ccc(NC(=O)NC2CCN(CCCOc3cc(C)nc4ccccc34)CC2)cc1OC | 1280 nM
15 | COc1ccc(CNCc2ccc(F)cc2)cc1-c1ccc(S(=O)(=O)NCCN2CCCC2)s1 | 710 nM
16 | COc1cccc(-c2ccc(NC(=O)C3CCCN(Cc4cccc(OC)c4O)C3)cc2)c1 (centres undefined) | 850 nM
17 | NC(N)=NC(=O)Nc1ccc(Cl)c([N+](=O)[O-])c1 | 760 nM
18 | O=C(/C=C/c1ccc(Cl)c(Cl)c1)N1CCC(CCCN2CCC(c3c[nH]c4ccc(O)cc34)CC2)CC1 | 690 nM
19 | COc1nc(N)ncc1C(=O)NC1CN2CCC1CC2 (centres undefined) | 240 nM
20 | CN(Cc1cccc(O)c1)C1CCN(c2cc(NC(=O)c3cccc(F)c3)ccn2)CC1 | 850 nM
21 | Cc1ncc([N+](=O)[O-])n1CCOC(=O)NC(Nc1ccc(Br)cc1)C(Cl)(Cl)Cl (centres undefined) | 960 nM
22 | COc1cc(NC(=O)Nc2ccc(Br)cc2C(=O)Nc2ccc(Br)cc2)cc(OC)c1OC | 760 nM
23 | CCC(C)CN1C(=O)C(c2ccccc2)(c2ccccc2)N=C1N (centres undefined) | 710 nM
24 | Cn1cc(C(=O)Nc2cccc(-c3cccc(-c4nc5ccccc5[nH]4)c3)c2)n(C)c1=O | 710 nM
25 | O=C(/C=C/c1ccc(C(F)(F)F)cc1)NC1CCC(CN2CCC(c3c[nH]c4ccccc34)CC2)CC1 (centres undefined) | 960 nM and 370 nM

Row | SMILES | IC50
26 | O=C(/C=C/c1ccc(Cl)c(Cl)c1)NC1CCC(CN2CCC(Cc3c[nH]c4ccccc34)CC2)CC1 (centres undefined) | 890 nM
27 | COc1ccccc1CCNc1nc(C)cc(N[C@@H](Cc2ccccc2)C(=O)NCCOc2ccccc2)n1 | 1210 nM
28 | O=C(NC1CCN(c2ccnc3ccccc23)C1)c1cccc(C(F)(F)F)c1 (centres undefined) | 900 nM
29 | COc1ccc(C(=O)CCC(=O)N(Cc2ccc(-c3ccc(CNCCc4ccc(S(C)(=O)=O)cc4)cn3)cc2)Cc2ccc3c(c2)OCO3)cc1F | 940 nM
30 | COc1cc2nccc(Nc3ccc(OCc4ccccc4)cc3)c2cc1OC | 200 nM
31 | COc1ccc(Nc2nccc(NCCNC(=O)Nc3cc(C)ccc3C)n2)cc1 | 1050 nM
32 | COc1ccc2nccc([C@@H](O)CN3CCC(NCc4nc5c([N+](=O)[O-])cccc5[nH]4)CC3)c2c1 | 710 nM
33 | CC(C)Cc1c(O)nc(SCCN2CCOCC2)[nH]c1=O | 1260 nM
34 | Clc1ccc2c(NCCc3ccccc3)ccnc2c1 | 490 nM
35 | CCCN1CCC=C(c2cccc(Nc3nccc(Nc4cc(OC)ccc4C)n3)c2)C1 | 1040 nM
36 | O=C(NCCc1cccc(F)c1)c1ccc(N2CCN(c3ccncc3)CC2)cn1 | 1020 nM
37 | O=C(c1cccc(-c2noc(C(F)(F)F)n2)c1)N1CCN(c2ccncc2)CC1 | 230 nM
38 | CC(C)N(CCOc1ccc2c(c1)N(C(=O)Nc1cc(Br)cc(C(F)(F)F)c1)CC2)C(C)C | 110 nM
39 | COc1ccc(CNC2CCN(C)CC2)cc1-c1cccc(S(=O)(=O)NCc2ccccc2)c1 | 720 nM
40 | CN1CCN(Cc2ccc(OCc3cccc(COc4ccc(CN5CCN(C)CC5)cc4I)c3)c(I)c2)CC1 | 1010 nM
41 | COc1cc(NC(=O)c2cc3c(C)nn(-c4cccc(C(F)(F)F)c4)c3s2)cc(OC)c1OC | 800 nM
42 | CCc1c[nH]c2c(N3CCCCS3(=O)=O)cc(C(=O)N[C@@H](Cc3ccccc3)[C@H](O)CNCc3cccc(OC)c3)cc12 | 910 nM
43 | CCN(CC)c1ccccc1CNC(=O)c1cc(Cl)c(N)cc1OC | 210 nM
44 | CC(=O)Nc1ccc(CN2CCN(C(c3ccc(F)cc3)c3ccc(F)cc3)CC2)cc1 | 830 nM
45 | NS(=O)(=O)c1ccccc1Nc1nc(Nc2ccc(N3CCOCC3)cc2)nc2c1CCC2 | 670 nM
46 | Cc1cc(NCCC(=O)Nc2ccccc2)nc(NCCc2ccc(F)cc2)n1 | 1130 nM
47 | COc1cc(NC(=O)CCCN2CCN(c3cccc(Cl)c3Cl)CC2)ccc1N1CCN(C(C)C)CC1 | 950 nM
48 | O=C(CCCCCNC(=O)c1ccc(O)c(-c2ccc(Cl)c(Cl)c2)c1)NC1CCCCCC1 | 950 nM
49 | CN(Cc1ccc(-c2ccc(C(F)(F)F)cc2)cc1)C(=O)Cn1c(CCc2cccc(F)c2F)nc(=O)c2ccc(N3CCN(CCN4CCCCC4)CC3)nc21 | 760 nM
